Results from US20260207761A1, “USE OF DRUG CONJUGATE IN TREATMENT OF TUMOR DISEASE AND METHOD” (priority 2023, published 2026).
Like-named read-outs stand apart in the source and are kept apart here.

Tests used:
[1] = Trial Example 4: pharmacokinetic study, dose-escalation cohort
[2] = for exposure to toxin molecules: 50 mg/kg, after the last administration
[3] = conjugate A 25 mg/kg, female, Day 1
[4] = conjugate A 25 mg/kg, female, Day 43
[5] = conjugate A 25 mg/kg, male, Day 1
[6] = conjugate A 25 mg/kg, male, Day 43
[7] = conjugate A 50 mg/kg, female, Day 1
[8] = conjugate A 50 mg/kg, female, Day 43
[9] = conjugate A 50 mg/kg, male, Day 1
[10] = conjugate A 50 mg/kg, male, Day 43
[11] = conjugate A 75 mg/kg, female, Day 1
[12] = conjugate A 75 mg/kg, female, Day 43
[13] = conjugate A 75 mg/kg, male, Day 1
[14] = conjugate A 75 mg/kg, male, Day 43

CC[C@@]1(O)C(=O)OCc2c1cc1n(c2=O)Cc2c-1nc1ccccc1c2CCN(C(C)C)S(C)(=O)=O [toxins]
plasma exposure of the free payload, AUC, relative to conjugate A ([1]; first 4-week period): ~5% | plasma exposure of the free payload, Cmax, relative to conjugate A ([1]; first 4-week period): about 6% | half-life ([1]; patients, biweekly dosing regimen): ~49 h | exposure to toxin molecules ([2]; female monkeys): 5.86 µg·h/mL | exposure to toxin molecules ([2]; male monkeys): 3.85 µg·h/mL | AUClast of toxins [2, 3]: 1.43 µg·h/mL | Cmax of toxins [2, 3]: 38.3 ng/mL | AUClast of toxins [2, 4]: 1.86 µg·h/mL | Cmax of toxins [2, 4]: 65.1 ng/mL | AUClast of toxins [2, 5]: 1.79 µg·h/mL | Cmax of toxins [2, 5]: 49.0 ng/mL | AUClast of toxins [2, 6]: 2.57 µg·h/mL | Cmax of toxins [2, 6]: 64.5 ng/mL | AUClast of toxins [2, 7]: 3.97 µg·h/mL | Cmax of toxins [2, 7]: 113 ng/mL | AUClast of toxins [2, 8]: 3.85 µg·h/mL | Cmax of toxins [2, 8]: 127 ng/mL | AUClast of toxins [2, 9]: 4.49 µg·h/mL | Cmax of toxins [2, 9]: 94.0 ng/mL | AUClast of toxins [2, 10]: 5.86 µg·h/mL | Cmax of toxins [2, 10]: 146 ng/mL | AUClast of toxins [2, 11]: 5.12 µg·h/mL | Cmax of toxins [2, 11]: 132 ng/mL | AUClast of toxins [2, 12]: 4.68 µg·h/mL | Cmax of toxins [2, 12]: 137 ng/mL | AUClast of toxins [2, 13]: 5.42 µg·h/mL | Cmax of toxins [2, 13]: 132 ng/mL | AUClast of toxins [2, 14]: 4.08 µg·h/mL | Cmax of toxins [2, 14]: 110 ng/mL
